Results as given in patent US7670791B1, “Method for the suppression of visceral pain by regulating T-type calcium channel” (Korea Institute of Science and Technology, priority 2001, dated 2010).

Columns and labels:
[1] = inside the body, after peripheral (peritoneal) injection; cited from earlier work
[2] = test system: visceral pain caused by acetic acid in normal mice; experiment: Acetic acid-induced visceral pain (writhing test) after mibefradil injection; assay type: in vivo
Method: The present inventors injected 0.6% acetic acid into the peritoneal cavity of mice to examine the acetic acid-induced visceral pain response. The visceral pain is elicited secondarily to a delayed inflammatory response and induced abdominal stretching and writhing behavior (Gyires and Torma, Arch Int. Pharmacodyn. Ther., 1984, 267:131-140). Mice were placed individually in a transparent home cage (24×18×12 cm) and allowed to acclimate for at least 60 min. Then, 0.6% acetic acid ([…]) was injected into the peritoneum, after which the mice was returned to the testing chamber. The number of abdominal stretches or writhing motions was counted for 20 min. All mice were used only once in this experiment. […]
Particularly, in order to find out how mibefradil, the T-type calcium channel inhibitor functions, mibefreail was dissolved in 0.9% of NaCl at the concentration of 5 mg/ml. The degree of writhing was measured in a visceral pain inducing experiment 20 minutes after the injection of the said mibefradil at the concentration of 1, 10 and 30 mg/kg respectively in peritoneum of the mice.

SMILES: COCC(=O)O[C@]1(CCN(C)CCCc2nc3ccccc3[nH]2)CCc2cc(F)ccc2[C@@H]1C(C)C [mibefradil, Mibefradil]
- passage through the brain barrier [1]: cannot pass through the brain barrier
- degree of writhing / visceral pain caused by acetic acid ([2]; normal (wild-type) mice, mibefradil 1, 10 and 30 mg/kg in peritoneum, 20 minutes before test, 0.6% acetic acid i.p., FIG. 4): induced analgesia
- visceral pain caused by acetic acid ([2]; wild-type mice, mibefradil injected in the brain): enhanced
